In patent publication US20220347118A1, “STABLE MEDICINAL CANNABIDIOL COMPOSITIONS” (CARDIOL THERAPEUTICS INC., priority 2019, published 2022):

Legend:
CB2 receptor = CB2 receptor (Homo sapiens, UniProt P34972); settings: Proc Natl Acad Sci USA. 2008; 105(26):9099-104; cited from earlier work
Solubility of CBD in BCP = format: physicochemical; settings: in 1 mL of BCP and its derivatives
Protocol: For example, at least 300 mg of CBD can be dissolved in 1 mL of BCP and its derivatives. The enhanced stability of the CBD provides a composition with an acceptable shelf life and which can provide consistency in dosing and enhanced safety.

Chain of CB2 receptor (P34972 whole entry): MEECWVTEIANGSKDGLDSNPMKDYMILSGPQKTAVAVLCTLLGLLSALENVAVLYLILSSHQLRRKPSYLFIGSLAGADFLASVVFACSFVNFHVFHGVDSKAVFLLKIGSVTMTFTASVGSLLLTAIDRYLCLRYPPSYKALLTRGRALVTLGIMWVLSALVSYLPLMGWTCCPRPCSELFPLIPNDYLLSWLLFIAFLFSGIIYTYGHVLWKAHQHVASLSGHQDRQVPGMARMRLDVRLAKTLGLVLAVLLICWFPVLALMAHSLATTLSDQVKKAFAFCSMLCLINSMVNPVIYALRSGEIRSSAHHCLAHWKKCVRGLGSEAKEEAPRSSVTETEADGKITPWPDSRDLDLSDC

Compound | CB2 receptor binding / functional activity (CB2 receptor) | amount of CBD that can be dissolved in BCP (Solubility of CBD in BCP)
C=C1CC/C=C(\C)CC[C@@H]2[C@@H]1CC2(C)C [β-caryophyllene, trans-(1R,9S)-8-Methylene-4,11,11-trimethylbicyclo[7.2.0]undec-4-ene] | selectively binds to the CB2 receptor and is a functional CB2 agonist | 
C=C(C)[C@@H]1CCC(C)=C[C@H]1c1c(O)cc(CCCCC)cc1O [CBD, cannabidiol] |  | at least 300 mg
